The source of these data is patent US9750724B2, “Use of an aromatase inhibitor for the treatment of hypogonadism and related diseases” (Mereo BioPharma 2 Limited, priority 2011, dated 2017).

In general, Tmax refers to the time at which the peak concentration occurs. As usually defined, the AUC(0-t) is exposure summed from dosing to a finite time, without extrapolation to infinity. Read a high AUC(0-t) as high exposure. What is called Cmax is the peak of the concentration-time curve. As a reminder, the half-life is the time in which the quantity being followed falls by half. Read a low half-life as fast loss.

Like-named read-outs stand apart in the source and are kept apart here.

Data set [1] is described as follows: Single ascending dose study in pre- and post-menopausal women, pharmacokinetics. The class given is in vivo, human. As to conditions: female, human, in vivo, 2.5 mg. An excerpt:
The drug concentration in plasma and/or serum samples can be determined by a number of different ways, e.g. HPLC or LC-MS/MS analyses. […]
A minimal toxic dose (MTD) was not reached. […] Table 3 presents the PK parameters based on preliminary analysis of the concentration-time profile obtained from this study.

Data set [2] concerns serum testosterone, estradiol, LH and FSH. As to conditions: 2.5 mg weekly, cited from earlier work; for free testosterone: fixed dosing interval.

On to `N#Cc1ccc(C(c2ccc(C#N)cc2)n2cncn2)cc1` [Letrozole, letrozole], for which the Tmax in data set [1] was determined as 1 h. The AUC(0-t) in data set [1] (AUC (0-tlast) Mean) is 1670 ng·h/mL. The same compound had a Cmax in data set [1] (Cmax Mean) of 33.5 ng/mL. For the same compound, the half-life in data set [1] (T1/2 Mean) is 69.6 h. In addition, the “LH and FSH” value in data set [2] (12 OHH men) was “increased LH and FSH”. Besides, the total estradiol entry in data set [2] (12 OHH men) is “suppressed total estradiol”. Moreover, in data set [2] (12 OHH men, de Boer 2005, Loves 2008), the total testosterone result is “increased total testosterone into the normal range”. In addition, the free testosterone result in data set [2] is reported as “rose above the normal range in approximately half of the subjects”; in data set [2] (listed as letrozole) it was “excessive free testosterone levels in approximately half the subjects”.
